# According to paper PMC4216217 (Journal of Medicinal Chemistry, 2014):
# Read-outs that look alike come from different tables or passages of the source.
# How the values were obtained:
# rat D2-like receptors = rat D2-like receptors (Rattus norvegicus, UniProt P61169); test: biochemical; assay type: binding
# [1] = molecular target: rat D3 dopamine receptors (Rattus norvegicus, UniProt P19020); test: biochemical; assay type: binding
# human D3 receptor = human D3 receptor (Homo sapiens, UniProt P35462); test: cell-based; assay type: cell-based
# human D3 receptor, sequence (P35462 whole entry): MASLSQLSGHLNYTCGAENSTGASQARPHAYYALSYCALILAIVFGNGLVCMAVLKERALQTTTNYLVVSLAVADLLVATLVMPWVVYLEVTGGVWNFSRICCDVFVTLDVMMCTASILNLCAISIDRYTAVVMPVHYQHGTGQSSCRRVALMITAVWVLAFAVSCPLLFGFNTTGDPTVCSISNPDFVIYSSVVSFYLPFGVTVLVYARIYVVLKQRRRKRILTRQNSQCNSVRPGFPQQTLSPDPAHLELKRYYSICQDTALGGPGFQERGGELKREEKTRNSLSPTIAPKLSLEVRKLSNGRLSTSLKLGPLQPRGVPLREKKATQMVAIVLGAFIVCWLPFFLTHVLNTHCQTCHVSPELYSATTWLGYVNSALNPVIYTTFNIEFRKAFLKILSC
# rat D3 dopamine receptors, sequence (P19020 whole entry): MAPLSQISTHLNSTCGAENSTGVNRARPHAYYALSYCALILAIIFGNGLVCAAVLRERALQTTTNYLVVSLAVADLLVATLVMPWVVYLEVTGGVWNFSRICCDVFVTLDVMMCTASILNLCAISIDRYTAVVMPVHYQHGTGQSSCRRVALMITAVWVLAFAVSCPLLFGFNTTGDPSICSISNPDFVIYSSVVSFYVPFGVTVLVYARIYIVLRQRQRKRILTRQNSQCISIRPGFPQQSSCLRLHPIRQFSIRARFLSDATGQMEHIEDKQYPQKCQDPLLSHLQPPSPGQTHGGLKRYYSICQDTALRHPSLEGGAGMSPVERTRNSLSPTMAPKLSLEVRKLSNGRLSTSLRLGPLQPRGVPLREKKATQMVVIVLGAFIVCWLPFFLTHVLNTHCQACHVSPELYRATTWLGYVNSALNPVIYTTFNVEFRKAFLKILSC
# rat D2-like receptors, sequence (P61169 1-415 isoform P61169-2): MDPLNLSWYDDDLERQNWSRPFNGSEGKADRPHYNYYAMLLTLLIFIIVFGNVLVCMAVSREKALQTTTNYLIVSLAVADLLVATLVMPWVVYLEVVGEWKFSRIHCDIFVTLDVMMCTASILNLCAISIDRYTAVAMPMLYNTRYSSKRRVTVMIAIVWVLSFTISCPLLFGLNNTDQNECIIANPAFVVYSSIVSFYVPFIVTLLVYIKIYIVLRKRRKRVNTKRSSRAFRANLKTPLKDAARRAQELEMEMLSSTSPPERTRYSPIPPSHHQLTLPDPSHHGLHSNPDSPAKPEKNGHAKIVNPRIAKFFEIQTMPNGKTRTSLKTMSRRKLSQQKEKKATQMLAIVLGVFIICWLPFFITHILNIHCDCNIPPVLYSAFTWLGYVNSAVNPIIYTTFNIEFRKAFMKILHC
smiles,measurement,setting,value
"CCCN(CC[C@]1(O)C[C@@H](NC(=O)c2ccc3ccccc3c2)C1)C1CC1c1ccc(Cl)cc1 (relative stereo) [(±)-11, N-(cis-3-(2-((((±)-trans)-2-(4-Chlorophenyl)cyclopropyl)(propyl)-amino)ethyl)-3-hydroxycyclobutyl)-2-naphthamide]",Ki,rat D2-like receptors,> 100000 nM
same,binding to the rat D2 receptor,rat D2-like receptors,neither compound showing measurable binding
"CCCN(CC[C@]1(O)C[C@@H](NC(=O)c2ccc3ccccc3c2)C1)[C@H]1C[C@@H]1c1ccccc1Cl (relative stereo) [(±)-12, N-(cis-3-(2-((((±)-trans)-2-(2-Chlorophenyl)cyclopropyl)(propyl)-amino)ethyl)-3-hydroxycyclobutyl)-2-naphthamide]",Ki,rat D2-like receptors,503 ± 63 nM
"CCCN(CC[C@]1(O)C[C@@H](NC(=O)c2ccc3ccccc3c2)C1)[C@H]1C[C@@H]1c1cccc(Cl)c1 (relative stereo) [(±)-13, N-(cis-3-(2-((((±)-trans)-2-(3-Chlorophenyl)cyclopropyl)(propyl)-amino)ethyl)-3-hydroxycyclobutyl)-2-naphthamide]",selectivity D3/D2,[1],>29000
same,selectivity for rat D3 receptor over rat D2 receptor,[1],> 10000
same,Ki,"[1]; Ki ± SEM, D3",26 nM
same,binding to the rat D2 receptor,rat D2-like receptors; at 100 μM,neither compound showing measurable binding
"CCCN[C@@H]1C[C@H]1c1ccccc1 [(1R,2S)-9, (1R,2S)-2-Phenyl-N-propylcyclopropanamine]",selectivity for rat D3 receptor over rat D2 receptor,[1],approximately 80 fold
"CCCN(CC[C@]1(O)C[C@@H](NC(=O)c2ccc3ccccc3c2)C1)[C@@H]1C[C@H]1c1ccccc1 [(1R,2S)-10, N-(cis-3-Hydroxy-3-(2-(((1R,2S)-2-phenylcyclopropyl)(propyl)amino)-ethyl)cyclobutyl)-2-naphthamide]",selectivity for rat D3 receptor over rat D2 receptor,[1],20–30 fold
"CCCN(CC[C@]1(O)C[C@@H](NC(=O)c2ccc3ccccc3c2)C1)[C@@H]1C[C@H]1c1ccc(Cl)cc1 [(1R,2S)-11, N-(cis-3-(2-(((1R,2S)-2-(4-Chlorophenyl)cyclopropyl)(propyl)-amino)ethyl)-3-hydroxycyclobutyl)-2-naphthamide]",binding to the rat D2 receptor,rat D2-like receptors,no appreciable binding
same,EC50,human D3 receptor,> 100000 nM
same,slope of the Schild plot,human D3 receptor; D3 activity stimulated by pramipexole,−0.83
same,EC50,"human D3 receptor; read-out: agonist activity ED50, β-arrestin binding to human D3, U2OS",> 100000 nM
same,agonist activity,"human D3 receptor; β-arrestin binding to human D3, in words",no agonist activity
"CCCN[C@H]1C[C@@H]1c1ccccc1 [(1S,2R)-9, (1S,2R)-2-Phenyl-N-propylcyclopropanamine]",selectivity for rat D3 receptor over rat D2 receptor,[1],approximately 80 fold
"CCCN(CC[C@]1(O)C[C@@H](NC(=O)c2ccc3ccccc3c2)C1)[C@H]1C[C@@H]1c1ccccc1 [(1S,2R)-10, N-(cis-3-Hydroxy-3-(2-(((1S,2R)-2-phenylcyclopropyl)(propyl)-amino)ethyl)cyclobutyl)-2-naphthamide]",selectivity for rat D3 receptor over rat D2 receptor,[1],20–30 fold
